Here are results for ten compounds from patent US9120785B2, “Pyridyl aminopyridines as Syk inhibitors” (Merck Sharp & Dohme Corp., priority 2011, dated 2015).

The target in data set [1] is recombinant human GST-Syk (Homo sapiens (Human), UniProt P43405). Kind of data set: Homogeneous Time-Resolved Fluorescence (HTRF) assay for the recombinant human Syk enzyme. The settings on record: recombinant human GST-Syk 5 pM, ATP 25 μM. In kind it is biochemical. Summed up: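 GST-hSyk (5 pM final) preincubated 10 min at room temperature with inhibitor (0.1% DMSO) in 15 mM Tris-HCl pH 7.5, 0.01% Tween 20, 2 mM DTT. Reaction with 250 nM biotinylated peptide, 5 mM Mg, 25 μM ATP for 45 min, room temperature. Quenched with EDTA; Eu-anti-phosphotyrosine/SA-APC HTRF read after 30 min.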
For orientation: TR-FRET usually uses a lanthanide donor and a delayed reading to cut background.

For data set [2] the following is noted: phase II clinical trial, allergic rhinitis; cited from earlier work.
For data set [3] the following is noted: dosed intranasally, phase I/II study, allergic rhinitis; cited from earlier work.
[4] abbreviates: 10-dose titration, read-out: rhSyk (nM) IC50.
The mark [5] stands for this setting: class symbols, read-out: rhSyk activity (IC50).

Like-named read-outs stand apart in the source and are kept apart here. A value given as a limit tells only on which side of the number the result lay.

With `CC1(C)C[C@@H](C(C)(O)c2ncc(-c3cccc(Nc4cc(C(F)F)ccn4)n3)s2)CC[C@@H]1C(=O)O` (stereo partly drawn) [Example 14-50, (1S,4S)-4-{1-[5-(6-{[4-(difluoromethyl)pyridin-2-yl]amino}pyridin-2-yl)-1,3-thiazol-2-yl]-1-hydroxyethyl)-2,2-dimethylcyclohexanecarboxylic acid], the IC50 (commonly the point on the concentration scale where inhibition reaches its midpoint) in data set [1] (setting [4]) was 6 nM; in data set [1] (setting [5]), no more than 100 nM.
As to `CCC(O)(c1ncc(-c2cc(C)cc(Nc3cc(C4CC4)ccn3)n2)s1)[C@H]1CC[C@H](C(N)=O)CC1` (mixture of isomers) [Example 2, racemic mixture, trans-4-[1-(5-{6-[(4-cyclopropylpyridin-2-yl)amino]-4-methylpyridin-2-yl}-1,3-thiazol-2-yl)-1-hydroxypropyl]cyclohexanecarboxamide], the IC50 was 3.1 nM in data set [1] (setting [4]) and no more than 100 nM in data set [1] (setting [5]).
Turning to `Cc1cc(Nc2cc(C(F)(F)F)ccn2)nc(-c2cnc(C(O)([C@H]3CC[C@H](C(=O)O)CC3)C(F)(F)F)s2)c1` (single isomer, unassigned) [Example 14-20, trans-4-{2,2,2-trifluoro-1-hydroxy-1-[5-(4-methyl-6-{[4-(trifluoromethyl)pyridin-2-yl]amino}pyridin-2-yl)-1,3-thiazol-2-yl]ethyl}cyclohexanecarboxylic acid], the IC50 in data set [1] (setting [5]) is no more than 100 nM.
Turning to `Oc1cccc(Nc2ncc(F)c(Nc3cccc(O)c3)n2)c1` [Example R112], the efficacy versus placebo result in data set [2] was “lack of efficacy versus placebo”. In data set [3], the clinical safety entry was “safe across a range of indicators” and the “decrease in PGD2” value is listed as “statistically significant decrease”.
With `COc1ccnc(Nc2cccc(-c3cnc(C(C)(O)[C@H]4CC[C@H](C(=O)O)C(C)(C)C4)s3)n2)c1` (stereo partly drawn) [Example 14-49, (1S,4S)-4-[1-hydroxy-1-(5-{6-[(4-methoxypyridin-2-yl)amino]pyridin-2-yl}-1,3-thiazol-2-yl)ethyl]-2,2-dimethylcyclohexanecarboxylic acid], the IC50 in data set [1] (setting [5]) is no more than 100 nM.
Take `Cc1cc(Nc2cc(C(F)F)ccn2)nc(-c2cnc(C(C)(O)[C@H]3CC[C@H](C(=O)O)C(C)(C)C3)s2)c1` (stereo partly drawn) [Example 14-38, (1S,4S)-4-{1-[5-(6-{[4-(difluoromethyl)pyridin-2-yl]amino}-4-methylpyridin-2-yl)-1,3-thiazol-2-yl]-1-hydroxyethyl}-2,2-dimethylcyclohexanecarboxylic acid]: the IC50 in data set [1] (setting [5]) is no more than 100 nM.
Take `CC(O)(c1ncc(-c2cccc(Nc3cc(C(F)(F)F)ccn3)n2)s1)[C@H]1CC[C@H](C(=O)O)CC1` (single isomer, unassigned) [Example 8, trans-4-{(1R or 1S)-1-Hydroxy-1-[5-(6-{[4-(trifluoromethyl)pyridin-2-yl]amino}pyridin-2-yl)-1,3-thiazol-2-yl]ethyl}cyclohexanecarboxylic acid]: in data set [1] (setting [5]), the IC50 was no more than 100 nM.
As for `Cc1ccnc(Nc2cccc(-c3cnc(C(C)(O)[C@H]4CC[C@H](C(=O)O)C(C)(C)C4)s3)n2)c1` (stereo partly drawn) [Example 14-46, (1S,4S)-4-[1-hydroxy-1-(5-{6-[(4-methylpyridin-2-yl)amino]pyridin-2-yl}-1,3-thiazol-2-yl)ethyl]-2,2-dimethylcyclohexanecarboxylic acid], in data set [1] (setting [5]), the IC50 was no more than 100 nM.
Consider `Cc1cc(Nc2cc(OC(C)C)ccn2)nc(-c2cnc(C(O)([C@H]3CC[C@H](C(=O)O)CC3)C(F)(F)F)s2)c1` (single isomer, unassigned) [Example 14-26, trans-4-{2,2,2-trifluoro-1-hydroxy-1-[5-(4-methyl-6-{[4-(propan-2-yloxy)pyridin-2-yl]amino}pyridin-2-yl)-1,3-thiazol-2-yl]ethyl}cyclohexanecarboxylic acid], for which the IC50 in data set [1] (setting [5]) is no more than 100 nM.
For `Cc1cc(Nc2cc(C(F)F)ccn2)nc(-c2cnc(C(C)(O)[C@H]3CC[C@H](C(=O)O)C(C)(C)C3)s2)c1` (stereo partly drawn) [Example 14-37, (1S,4S)-4-{1-[5-(6-{[4-(difluoromethyl)pyridin-2-yl]amino}-4-methylpyridin-2-yl)-1,3-thiazol-2-yl]-1-hydroxyethyl}-2,2-dimethylcyclohexanecarboxylic acid], the half-maximal inhibitory concentration (IC50) in data set [1] (setting [5]) was no more than 100 nM.
